Values of other authors, collected in patent US12599555B2, “Formulation” (priority 2019, dated 2026).

Details: administered by inhalation in the treatment of asthma

bioavailability: 10-15%
Compound: O=C([O-])c1cc(=O)c2c(OCC(O)COc3cccc4oc(C(=O)[O-])cc(=O)c34)cccc2o1.[Na+].[Na+] [sodium cromoglicate, disodium 5,5′-[(2-hydroxytrimethylene)dioxy]bis-[4-oxo-4H-1-benzopyran-2-carboxylate]]
